Values of other authors as cited in US20260083754A1, “CORTICOSTEROID CONTAINING ORALLY DISINTEGRATING TABLET COMPOSITIONS FOR EOSINOPHILIC ESOPHAGITIS” (Ellodi Pharmaceuticals, L.P., priority 2013, published 2026).

Key:
[1] = system: adolescent and adult patients with active EoE; conditions: 15-day course, 1 mg twice daily

SMILES | tolerability [1] | patients who achieved histologic remission (EoE patients; FP-treated patients, placebo 9%, P=0.047) [%] | esophageal eosinophil levels (EoE patients; more pronounced effect in non-allergic individuals)
CCCC1O[C@@H]2C[C@H]3[C@@H]4CCC5=CC(=O)C=C[C@]5(C)[C@H]4[C@@H](O)C[C@]3(C)[C@]2(C(=O)CO)O1 (stereo partly drawn) [budesonide] | well tolerated | – | –
CCC(=O)O[C@]1(C(=O)SCF)[C@H](C)C[C@H]2[C@@H]3C[C@H](F)C4=CC(=O)C=C[C@]4(C)[C@@]3(F)[C@@H](O)C[C@@]21C [FP, fluticasone propionate] | – | 50 | decreased
